Assay results from patent US20250276955A1, “CORONAVIRUS MAIN PROTEASE INHIBITORS AND METHODS USING SAME” (Baylor College of Medicine, priority 2021, published 2025).
Entries after “also recorded” stand apart in the source; their conditions may differ.

What was measured:
[1] = tested on: SARS-COV-2 (USA_WA1/2020 isolate) in VERO E6 cells; test: Real-Time Cell Analysis (RTCA) assay of SARS-COV-2 replication; assay type: cell-based; conditions: VERO E6 cells, 75 h
[2] = tested on: HepG2 cells; test: HepG2 cytotoxicity assay (XTT)
[3] = target: SARS-CoV-2 main protease (M^pro) (Severe acute respiratory syndrome coronavirus 2, UniProt P0DTD1); test: Protein thermal shift stability assay (SYPRO Orange); assay type: binding
[4] = Metabolic stability in mouse liver microsomes; assay type: in vitro ADME
Method in brief: (§1)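 Mouse or human liver microsomal incubations sampled in duplicate at 0, 30 and 60 min, quenched with equal volume ice-cold methanol. Supernatant analysed by UHPLC-Orbitrap MS, C18 column at 40° C, positive ESI, m/z 80–1,200.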

[5] = target: SARS-COV-2 M^pro-His6 (Severe acute respiratory syndrome coronavirus 2, UniProt P0DTD1); test: biochemical; assay type: biochemical; conditions: 25 nM enzyme, 15 μM fluorescent peptide, Morrison equation; Inactive = less than 50% inhibition at 25 μM compound; read-out: M^pro-His Ki
[6] = Plasma stability assay, mouse plasma; assay type: in vitro ADME; conditions: 10 μM, 37° C., after 2 h incubation
Method: Compound CDD-1713 and CDD-1976 were incubated in human and mouse plasma respectively at a concentration of 10 μM in duplicate (n=2) at 37° C. At time-points of 0, 30, 60 and 120 min, 15 μL of sample were taken out and the reactions terminated by adding 75 μL of ice-cold methanol. The reaction mixtures were then vortexed for 30 sec and centrifuged at rcf 15,000 for 15 min. Following centrifugation, 3 μL of the supernatant was analyzed using UHPLC-Q Exactive Orbitrap MS. The percentage of test compound remaining at the individual time points relative to the 0 min sample was then determined.

[7] = Metabolic stability in human liver microsomes; assay type: in vitro ADME
Method in brief: as §1

COc1cc(-c2cccc3[nH]ncc23)cc(C=O)c1OCC(=O)N(C)C [CDD-1713, 2-(2-formyl-4-(1H-indazol-4-yl)-6-methoxyphenoxy)-N,N-dimethylacetamide]
IC50 ([1]; Severe acute respiratory syndrome coronavirus 2, Vero C1008, read-out: IC50, inhibition of SARS-COV-2 induced cell death (RTCA)): 5.19 µM
prevention of SARS-COV-2 induced cell death (in words) [1]: reduced cell death in a dose-dependent manner
cytotoxicity in HepG2 cells (in words) ([2]; 100 μM): no obvious cytotoxicity
IC50 ([2]; Homo sapiens, HepG2, 24 h, read-out: HepG2 cell viability IC50): > 100 µM
stabilization of M^pro in thermal shift assay (in words) [3]: stabilized; also recorded: concentration-dependent stabilization
ΔTm of Mpro at 50 μM compound conc. ([3]; 50 μM compound, […]): 2.99 °C
MLM t1/2 ([4]; Table 4): 8.4 min
microsomal CLint at 2 μM ([4]; mouse, liver microsomes): 147 µL/min/mg
metabolic stability in mouse liver microsomes (in words) ([4]; mouse, microsomes): metabolically labile
Ki [5]: 0.0448 ± 0.0029 µM
compound remaining in mouse plasma [6]: 80%
HLM t1/2 ([7]; Table 4): 15.3 min
microsomal CLint at 2 μM ([7]; human, liver microsomes): 90.6 µL/min/mg
metabolic stability in human liver microsomes (in words) ([7]; human, microsomes): metabolically labile
